ChEMBL document CHEMBL4261645, “Isolation, leishmanicidal evaluation and molecular docking simulations of piperidine alkaloids from Senna spectabilis” (Bioorg Med Chem, 2018)
≈ marks a conversion by molar mass, not a printed value.

Assays:
[1] = Cytotoxicity against African green monkey Vero cells after 48 hrs by resazurin dye-based spectrophotometric analysis; assay type: cell-based; conditions: chlorocebus sabaeus
[2] = Log10 selectivity index, ratio of CC50 for African green monkey Vero cells to IC50 for Leishmania amazonensis PH8 promastigotes; conditions: Vero cells versus Leishmania amazonensis PH8 promastigotes
Leishmania amazonensis = test: Leishmanicidal activity against Leishmania amazonensis PH8 promastigotes after 48 hrs by spectrophotometric analysis; assay type: functional, organism-based; conditions: PH8, 48 h
Leishmania major = test: Leishmanicidal activity against Leishmania major MHOM/SU/1973/5-ASKH promastigotes after 48 hrs by cell counting method; assay type: functional, organism-based

CC(=O)CCCCCCCCCC[C@H]1CC[C@@H](O)[C@@H](C)N1 [CASSINE]
CC50 at 48 h [1]: 249 µg/mL (≈ 838 µM) | log10 selectivity index [2]: 0.99 | IC50 (Leishmania amazonensis): 25.2 µg/mL (≈ 84.6 µM) | IC50 (Leishmania major): 1.6 µg/mL (≈ 5.38 µM)

CC(=O)CCCCCCCCCC[C@H]1CC[C@@H](OC(C)=O)[C@@H](C)N1
CC50 at 48 h [1]: 357 to 361 µg/mL (≈ 1050 to 1060 µM) | log10 selectivity index [2]: 1.06 to 1.07 | IC50 (Leishmania amazonensis): 30.2 to 30.7 µg/mL (≈ 89.1 to 90.5 µM)

C[C@@H]1[C@H](O)[C@@H](C)/C=C/C=C/C=C/C=C/C=C/C=C/C=C/[C@H](O[C@@H]2O[C@H](C)[C@@H](O)[C@H](N)[C@@H]2O)C[C@@H]2O[C@](O)(C[C@@H](O)C[C@@H](O)[C@H](O)CC[C@@H](O)C[C@@H](O)CC(=O)O[C@H]1C)C[C@H](O)[C@H]2C(=O)O [AMPHOTERICIN B]
IC50 (Leishmania amazonensis): 0.29 µg/mL (≈ 0.314 µM)

CC(=O)CCCCCCCCCCCC[C@H]1CC[C@@H](OC(C)=O)[C@@H](C)N1
CC50 at 48 h [1]: 255 to 274 µg/mL (≈ 694 to 744 µM) | log10 selectivity index [2]: 0.99 to 1.02 | IC50 (Leishmania amazonensis): 25.9 to 26.3 µg/mL (≈ 70.6 to 71.6 µM)

CC(=O)CCCCCCCCCCCC[C@H]1CC[C@@H](O)[C@@H](C)N1
CC50 at 48 h [1]: 66.7 µg/mL (≈ 205 µM) | log10 selectivity index [2]: 0.62 | IC50 (Leishmania amazonensis): 15.8 µg/mL (≈ 48.6 µM) | IC50 (Leishmania major): 24.9 µg/mL (≈ 76.5 µM)
